| melting point [°C] | SMILES |
| --- | --- |
| 129 to 133 | Cc1ccc(S(=O)(=O)c2ccc3c(c2)c(CCN(C)C(=O)OC(C)(C)C)c(C)n3C)cc1 |
| 181 to 182 | OCc1c(-c2ccc(O)cc2)nnn1-c1ccc(C(F)(F)F)cc1Cl |
| 144 to 146 | CC(C)Nc1ccc(C2=NNC(=O)Cc3cc4c(cc32)OCO4)cc1 |
| 92 to 94 | COc1ccc2c(c1)c(CCON)c(C)n2Cc1ccc(Cl)cc1 |
| 107 to 110 | Cn1cc(-c2cccc(Cl)c2)c(=O)c(-c2ccc(Cl)c(Cl)c2)c1 |
| 150 to 151 | CCOC(=O)c1ccc(-c2cc(C(=O)OCC)c(N)[nH]2)cc1 |
| 82 to 83 | CS(=O)(=O)OCCCCc1ccc(OCc2coc(/C=C/c3ccccc3)n2)cc1 |
| 163 | COc1ccc(-c2cn3ccc(C)cc3n2)cc1OC |
| 180 to 184 | Cc1ccc(S(=O)(=O)ON=C2CCOc3cc(Cl)c(Cl)cc32)cc1 |
| 157 to 158 | COc1c(OC)c(OC)c2c(=O)cc(-c3ccc(OCc4ccccc4)c(OCc4ccccc4)c3)oc2c1OC |
| 215 | Cc1cn(-c2cccc(C3=Nc4ccc(-c5ccc(F)cc5)cc4NC(=O)C3)c2)cn1 |
| 104 to 105 | COC(=O)c1[nH]c2c(C)ccc(C)c2c1C=NOCc1ccccc1 |
| 196 to 197 | COc1ccc(-n2cnc3ccc(C(=O)NN)cc32)cc1 |
| 159 to 161 | COc1cc(C(C)C)ccc1C1(NC(=O)OC(C)C)C(=O)c2ccccc2C1=O |
| 128 to 130 | CCOc1ccc(OC)cc1C(N)=O |
| 208 to 211 | CN1C(=O)N(c2c(Cl)cccc2Cl)Cc2cnc(Nc3ccc(F)cc3)nc21 |
| 158 to 160 | COc1ccc(C(=O)c2cc3c(ccc4ccccc43)oc2=O)cc1 |
| 224 to 229 | COc1cc(Nc2c(C#N)cnc3cc(-c4ccc(C5OCCO5)o4)ccc23)c(Cl)cc1Cl |
| 132 to 133 | COc1ccc(-c2nc(Cl)n(C)c2-c2ccc(OC)cc2)cc1 |
| 62 to 64 | COc1ccc(Oc2nccnc2Cl)cc1 |
| 188 to 190 | CCc1c(S(=O)(=O)c2ccc(O)cc2)cnn1C |

| melting point [°C] | SMILES |
| --- | --- |
| 209 to 210 | CS(=O)(=O)c1ccc(COc2cccc(C(=O)Nc3ccc(C#N)cc3)c2)cc1 |
| 193 to 194 | Cc1ccc(C(=O)NC(NC(=NC#N)Nc2cccc(F)c2)C(C)(C)C)cc1 (stereo not drawn) |
| 104 to 107 | COC(=O)C1=C(C)NC(C)=C(C(=O)OCCN2CCN(C(c3ccc(Cl)cc3)c3ccc(Cl)cc3)CC2)C1c1cccc(Cl)c1Cl (stereo not drawn) |
| 217 to 219 | COc1c(F)cc2c(O)c(C(=O)NCc3ccc(Cl)cc3)cnc2c1F |
| 78 to 80 | O=C1c2ccccc2C(=O)N1CCCOc1cccc(CO)c1 |
| 134 to 136 | Cc1ccn(-c2ccc(C(=O)N3Cc4cccn4Cc4ccccc43)c(O)c2)n1 |
| 170 to 190 | COCCNCc1ccc(-c2cc3ncnc(Nc4ccc5[nH]ccc5c4)c3s2)cc1 |
| 100 to 101 | Cc1nccn1-c1nc(-c2ccc(Cl)cc2)c(CCCCOS(C)(=O)=O)o1 |
| 183 to 185 | CCCC(=O)c1cnc2c(C(C)=O)cccc2c1Nc1ccc(O)cc1C |
| 151 to 152 | OCc1c(CO)c2sc3ccccc3n2c1-c1ccc(Cl)cc1 |
| 166 to 167 | Fc1cc(Cl)ccc1/C=C/c1nc(COc2ccc(-c3nc(Cn4ccnc4)co3)cc2)co1 |
| 189 to 190 | COc1ccc(S(=O)(=O)Nc2cc(Cl)cc(Cl)c2OC)cc1N1CCNCC1 |
| 140 to 141 | Cc1cccc2c(=O)c3cccc(-c4ccccc4)c3oc12 |
| 109 to 111 | Fc1ccc(Nc2nc(Cl)nc(NN=Cc3ccc(OC(F)(F)F)cc3)n2)cc1C(F)(F)F |
| 166 | CC(C)(C)OC(=O)CCc1cccc(-c2nc(=O)c3ccccc3s2)n1 |
| 243 to 244 | CNc1nc(-c2ccc(F)cc2)c(-c2ccc(S(C)(=O)=O)cc2)s1 |
| 82 | CCCCc1cc2c(N=C3SC[C@@H]4Cc5ccccc5CN34)cccc2cn1 |
| 133 | COC(=O)c1cc(OC)c(OC)cc1C1=NCCc2ccccc21 |
| 207 to 210 | C=CCc1cn2c(=O)c(C(=O)O)cnc2c2cc(OC)ccc12 |
| 265 to 268 | COC(=O)c1ccc2oc3c(c(=O)c2c1)CCC3=Cc1ccc(N)cc1 |

Continued, molecule first:

| SMILES | melting point [°C] |
| --- | --- |
| COCc1nc2c(C(F)(F)F)cccc2c(O)c1C(=O)Nc1nccs1 | 260 |
| CCCOc1ccccc1-c1nc(O)cc(C(N)=O)n1 | 234 |
| CCOC(=O)c1cc2c(nc1C)CCCCC2 | 53 to 54 |
| COc1cc2c(cc1OC)CN(CCCCNC(=O)c1cc(Br)cc(OC)c1OCCF)CC2 | 127 to 129 |
| Cc1c(OCC(F)(F)F)ccnc1CS(=O)c1nc2ccccc2n1S(=O)(=O)c1ccc2c(c1)OCCOCCOCCOCCO2 (stereo not drawn) | 76 to 80 |
| Cc1cc(O)cc(C)c1NC=O | 239 |
| CCC(CC)(CO)NC(N)=S | 148 to 151 |
| CCOC(=O)[C@H](Cc1ccc(O)cc1)NC(=O)c1c(F)cccc1F | 149 to 150 |
| CCCCSc1c(N)cc(C(=O)O)cc1S(N)(=O)=O | 223 to 224 |
| O=C(COc1cccnc1)NCCCCC1CCN(C(c2ccccc2)c2ccccc2)CC1 | 103 to 105 |
| C[C@H](N)C(=O)N[C@@H](C)C(=O)NC(C)(Cc1ccccc1)c1ccccc1 (stereo partly drawn) | 161 to 162 |
| CS(=O)c1nc2cc(Oc3ccc(Cl)cc3Cl)c(Cl)cc2[nH]1 (stereo not drawn) | 206 to 208 |
| CCOC(=O)c1nc(Br)n2c1c(=O)n(C)c1cc(C(F)(F)F)ccc12 | 205 to 207 |
| CCCCC(=O)NC1(c2ccc(C(C)C)cc2OC(=O)CCCC)C(=O)c2ccccc2C1=O | 117 to 118 |
| O=C(NCCc1cccs1)C12CC3CC(CC(O)(C3)C1)C2 | 118 to 119 |
| Cc1cc2c3c(ccc2cc1Br)OC(=O)C3(C)C | 187 to 189 |
| CC1=CSC(O)C(=O)N1 (stereo not drawn) | 166 to 168 |
| CC(=O)OC1CCC2(C)C(=CC(=O)C3C4CCC(=O)C4(C)CCC32)C1=O (stereo not drawn) | 193 to 195 |
| COC(=O)NN=C(C)c1cc(Cl)ccc1NS(=O)(=O)C(F)(F)F | 211 to 214 |

| SMILES | melting point [°C] |
| --- | --- |
| CCC(C)(C)NC(=S)Nc1cc(F)cc(Cl)c1 | 116 to 118 |
| c1ccc2c(c1)c1ccccc1n2C1CCCCO1 (stereo not drawn) | 131 to 133 |
| Cc1c(Cl)cc(C(C)(C)C)c(O)c1-c1nc2ccc(F)cc2c(=O)[nH]1 | 224 to 225 |
| COC(=O)c1ccc(-c2ccc(C(CC3CCOCC3)c3ccc(S(=O)(=O)C4CC4)cc3)[nH]2)nc1 (stereo not drawn) | 150 to 152 |
| COc1ccc(NC=O)c(C=O)c1 | 125 to 127 |
| CC(=O)C(C(=O)Cc1ccccc1)C(=O)NS(=O)(=O)c1ccc(C)cc1 (stereo not drawn) | 120 |
| O=S(=O)(O)CCCCN1CCN(C(c2ccc(F)cc2)c2ccccn2)CC1 (stereo not drawn) | 231 to 232 |
| CC(C)(C)CCN1C(=O)C(NC(=O)Nc2ccccc2)C(=O)N(c2ccccc2F)c2ccccc21 (stereo not drawn) | 271 to 272 |
| Cc1nc2c(-c3cccc(C(F)(F)F)c3)cncn2n1 | 114 to 116 |
| CC(C)(C)OC(=O)N1CCNC[C@H]1C(c1ccccc1)c1ccccc1 | 100 to 105 |
| O=C(/C=C/c1cc(O)c(O)c([N+](=O)[O-])c1)CCCCC(=O)Nc1ccc(C(F)(F)F)cc1 | 194 to 197 |
| CCCCOc1cc(CCS(=O)(=O)NC(=O)OCCOC)n(Cc2ccc(Cl)cc2Cl)n1 | 82 to 86 |
| Nc1ccc(Cc2ccc(N)c(C(F)(F)F)c2)cc1C(F)(F)F | 84 to 88 |
| N#CCCNC(=O)c1cccc(-c2cncc3cc(Cc4cccc(C(F)(F)F)c4)oc23)c1 | 152 to 154 |
| CCN(CC)C(=O)n1cnc(S(=O)(=O)CC2CCCC2)n1 | 77 to 79 |
| CCc1cn(C)c2cc(-c3ccccc3Cl)c3c(c12)C(=O)NC3=O | 230 to 233 |
| OCC1(CO)COCCNCCOCCCOCCNCCO1 | 137 to 140 |
| CC(O)CN(CC(C)O)C(=O)c1ccc(C(=O)N2CCN(c3ncccc3NC(C)C)CC2)cc1 (stereo not drawn) | 73 to 75 |
| COC(=O)c1cscc1S(=O)(=O)Cl | 71 |

| SMILES | melting point [°C] |
| --- | --- |
| CC(C)(C)C(=O)c1c[nH]c2ncc(N3C(=O)CCc4ccccc43)nc12 | 257 to 259 |
| COc1ccc(C2(C#Cc3ccc(N4CN=C(C)O4)s3)CCC(=O)CC2)cc1OC1CCCC1 | 94 to 95 |
| O=C(O)[C@H](Cc1ccc(CC(F)(F)C(F)(F)F)cc1)[C@@H](O)c1cccc(Cl)c1 (racemic) | 150 to 151 |
| O=C(Nc1ccccn1)c1nnc2ccccc2c1O | 341 to 343 |
| O=C(O)c1cc2cc(Cl)cc(Cl)c2nc1N[C@@H](Cc1ccccc1)C(=O)O | 218 to 223 |
| CC(C(=O)C=CC1C(OC(=O)c2ccccc2)CC2OC(=O)CC21)C1C=CCC1 (mixture of isomers) | 85 to 87.5 |
| CC(C)C1(C)N=C(c2nc3scc([N+](=O)[O-])c3cc2C(=O)O)NC1=O (stereo not drawn) | 260 |
| Cc1cc([N+](=O)[O-])ccc1OC12CC3CC(CC(C3)C1)C2 | 89.5 to 91 |
| NCCCNc1nccc(NC(N)=NCC(F)(F)F)n1 | 159 |
| CN(C)CCCN1CCC(O)(c2ccccc2)C(C(=O)c2ccccc2)C1 (stereo not drawn) | 114 to 116 |
| CCOC(=O)C1=C(N)NC(N)=C(C(=O)OCC)C1c1ccccc1OC | 147 |
| O=Cc1c2n(c3ccc(Cl)cc13)CCC2 | 179 to 180 |
| CCOC(=O)c1cc(Nc2cccc(Cl)c2)c(C(=O)OCC)cc1Nc1cccc(Cl)c1 | 145 to 146 |
| CCN1C(=O)C(C)(C)C(=O)N(C)c2cc(CN(CCn3ccc4oc(COC)cc4c3=O)Cc3cccnc3C)ccc21 | 123 to 126 |
| COC(=O)c1cn2c(=O)c(Br)c(C)nc2s1 | 199 to 201 |
| CN1CCC(O)(c2cccc3ccc(N(Cc4ccccc4)Cc4ccccc4)cc23)CC1 | 173 to 174 |
| CN1CCC(=C2c3ccccc3Oc3ccc(C(F)(F)F)cc32)CC1 | 82 to 83 |
| COc1cc(OC)nc(NC(=O)N=NS(=O)(=O)C2SCCCN2C)n1 (stereo not drawn) | 188 to 190 |
| N#Cc1ccc2c(c1)C(=O)N(C1CCC(=O)NC1=O)C2=O (stereo not drawn) | > 260 |

— a melting point compilation (Tetko et al.; mined from patent text by program, amines drawn as free bases though some values may be those of a salt)
